Assay results: US9708314B2, “Heterocyclic amide compound” (NISSAN CHEMICAL INDUSTRIES, LTD., priority 2013, dated 2017)

Assays:
Type in all cases: in vivo
Cyperus difformis = test: Test Example 3: herbicidal effect by application to foliage (Wagner pot, water depth 0.1-0.5 cm); conditions: Nineteenth Table; application herbicide amount 320 g/ha
In short: (§1)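 Post-emergence foliar application at a stated g/ha rate to plants grown 14 days from seed in alluvial soil, greenhouse 25–30 °C. Visual score after 3 weeks: 0 (≤5% effect) through 5 (≥90%).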

[1] = test system: Echinochloa crus-galli var. crus-galli; test: as above; conditions: Nineteenth Table; application herbicide amount 320 g/ha
In short: as §1

Leptochloa chinensis = test: as above; conditions: Nineteenth Table; application herbicide amount 320 g/ha
In short: as §1

[2] = test system: directly sowed Oryza sativa; test: Test Example 3: effect on crop by application to foliage (Wagner pot, water depth 0.1-0.5 cm); conditions: Nineteenth Table; application herbicide amount 320 g/ha
In short: as §1

Abutilon theophrasti = test: Test Example 4: herbicidal effect by application to foliage (diluvial soil, plastic box); conditions: application to foliage, application herbicide amount 320 g/ha
In short: (§2)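 Scores run from 0 (herbicidal ratio ≤5%) to 5 (≥90%, almost fully withered) and were assessed three weeks after foliar spraying. Seedlings had been raised for 14 days at 25-30° C in sterilized diluvial soil before treatment, with the emulsion diluted in water to the stated g/ha dose.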

Alopecurus myosuroides = test: as above; conditions: application to foliage, application herbicide amount 320 g/ha
In short: as §2

Amaranthus retroflexus = test: as above; conditions: application to foliage, application herbicide amount 320 g/ha
In short: as §2

Apera spica-venti. = test: as above; conditions: application to foliage, application herbicide amount 320 g/ha
In short: as §2

Avena fatua = test: as above; conditions: application to foliage, application herbicide amount 320 g/ha
In short: as §2

Chenopodium album = test: as above; conditions: application to foliage, application herbicide amount 320 g/ha
In short: as §2

Digitaria ciliaris = test: as above; conditions: application to foliage, application herbicide amount 320 g/ha
In short: as §2

[3] = test system: Echinochloa crus-galli var. crus-galli; test: as above; conditions: application to foliage, application herbicide amount 320 g/ha
In short: as §2

Galium spurium = test: as above; conditions: application to foliage, application herbicide amount 320 g/ha
In short: as §2

Lolium multiflorum Lam. = test: as above; conditions: application to foliage, application herbicide amount 320 g/ha
In short: as §2

Setaria viridis = test: as above; conditions: application to foliage, application herbicide amount 320 g/ha
In short: as §2

Stellaria media = test: as above; conditions: application to foliage, application herbicide amount 320 g/ha
In short: as §2

Veronica persica = test: as above; conditions: application to foliage, application herbicide amount 320 g/ha
In short: as §2

[4] = test system: Beta vulgaris ssp. vulgaris; test: Test Example 4: effect on crop by application to foliage (diluvial soil, plastic box); conditions: application to foliage, application herbicide amount 320 g/ha
In short: as §2

Brassica campestris L. = test: as above; conditions: application to foliage, application herbicide amount 320 g/ha
In short: as §2

Glycine max = test: as above; conditions: application to foliage, application herbicide amount 320 g/ha
In short: as §2

Triticum aestivum = test: as above; conditions: application to foliage, application herbicide amount 320 g/ha
In short: as §2

Zea mays = test: as above; conditions: application to foliage, application herbicide amount 320 g/ha
In short: as §2

[5] = test system: directly sowed Oryza sativa; test: as above; conditions: application to foliage, application herbicide amount 320 g/ha
In short: as §2

| SMILES | E (Cyperus difformis) herbicidal ratio grade (Cyperus difformis) | H (Echinochloa crus-galli var. crus-galli) herbicidal ratio grade [1] | D (Leptochloa chinensis) herbicidal ratio grade (Leptochloa chinensis) | b (directly sowed Oryza sativa) effect on crop grade [2] | M (Abutilon theophrasti) herbicidal effect (Abutilon theophrasti) | J (Alopecurus myosuroides) herbicidal effect (Alopecurus myosuroides) | N (Amaranthus retroflexus) herbicidal effect (Amaranthus retroflexus) | L (Apera spica-venti.) herbicidal effect (Apera spica-venti.) | I (Avena fatua) herbicidal effect (Avena fatua) | O (Chenopodium album) herbicidal effect (Chenopodium album) | F (Digitaria ciliaris) herbicidal effect (Digitaria ciliaris) | H (Echinochloa crus-galli var. crus-galli) herbicidal effect [3] | Q (Galium spurium) herbicidal effect (Galium spurium) | K (Lolium multiflorum Lam.) herbicidal effect (Lolium multiflorum Lam.) | G (Setaria viridis) herbicidal effect (Setaria viridis) | P (Stellaria media) herbicidal effect (Stellaria media) | R (Veronica persica) herbicidal effect (Veronica persica) | f (Beta vulgaris ssp. vulgaris) effect on crop [4] | g (Brassica campestris L.) effect on crop (Brassica campestris L.) | c (Glycine max) effect on crop (Glycine max) | other results |
| --- | --- | --- | --- | --- | --- | --- | --- | --- | --- | --- | --- | --- | --- | --- | --- | --- | --- | --- | --- | --- | --- |
| Cc1nnc(NC(=O)c2ccc(C(F)(F)F)n3c(CS(=O)(=O)CC(F)(F)F)nnc23)o1 [1-039] | 3 (Herbicidal ratio of 40% or more and less than 70%) | 3 (Herbicidal ratio of 40% or more and less than 70%) | 3 (Herbicidal ratio of 40% or more and less than 70%) | 2 (Herbicidal ratio of 20% or more and less than 40%) | 0 (Herbicidal ratio of 5% or less (almost no effect)) | 0 (Herbicidal ratio of 5% or less (almost no effect)) | 1 (Herbicidal ratio of 5% or more and less than 20%) | 0 (Herbicidal ratio of 5% or less (almost no effect)) | 0 (Herbicidal ratio of 5% or less (almost no effect)) | 4 (Herbicidal ratio of 70% or more and less than 90%) | 2 (Herbicidal ratio of 20% or more and less than 40%) | 4 (Herbicidal ratio of 70% or more and less than 90%) | 0 (Herbicidal ratio of 5% or less (almost no effect)) | 0 (Herbicidal ratio of 5% or less (almost no effect)) | 0 (Herbicidal ratio of 5% or less (almost no effect)) | 0 (Herbicidal ratio of 5% or less (almost no effect)) | 0 (Herbicidal ratio of 5% or less (almost no effect)) | 2 (Herbicidal ratio of 20% or more and less than 40%) | 0 (Herbicidal ratio of 5% or less (almost no effect)) | 0 (Herbicidal ratio of 5% or less (almost no effect)) | e (Triticum aestivum) effect on crop (Triticum aestivum): 0 (Herbicidal ratio of 5% or less (almost no effect)); b (Zea mays) effect on crop (Zea mays): 0 (Herbicidal ratio of 5% or less (almost no effect)); d (directly sowed Oryza sativa) effect on crop [5]: 0 (Herbicidal ratio of 5% or less (almost no effect)) |
| Cc1nnc(NC(=O)c2ccc(C(F)(F)F)n3c(-c4ccc(C(F)(F)F)cc4)nnc23)o1 [1-045] | 4 (Herbicidal ratio of 70% or more and less than 90%) | 1 (Herbicidal ratio of 5% or more and less than 20%) | 3 (Herbicidal ratio of 40% or more and less than 70%) | 0 (Herbicidal ratio of 5% or less (almost no effect)) | 4 (Herbicidal ratio of 70% or more and less than 90%) | 0 (Herbicidal ratio of 5% or less (almost no effect)) | 4 (Herbicidal ratio of 70% or more and less than 90%) | 0 (Herbicidal ratio of 5% or less (almost no effect)) | 0 (Herbicidal ratio of 5% or less (almost no effect)) | 5 (Herbicidal ratio of 90% or more (almost completely withered)) | 3 (Herbicidal ratio of 40% or more and less than 70%) | 2 (Herbicidal ratio of 20% or more and less than 40%) | 2 (Herbicidal ratio of 20% or more and less than 40%) | 0 (Herbicidal ratio of 5% or less (almost no effect)) | 1 (Herbicidal ratio of 5% or more and less than 20%) | 2 (Herbicidal ratio of 20% or more and less than 40%) | 3 (Herbicidal ratio of 40% or more and less than 70%) | 3 (Herbicidal ratio of 40% or more and less than 70%) | 3 (Herbicidal ratio of 40% or more and less than 70%) | 0 (Herbicidal ratio of 5% or less (almost no effect)) | e (Triticum aestivum) effect on crop (Triticum aestivum): 0 (Herbicidal ratio of 5% or less (almost no effect)); b (Zea mays) effect on crop (Zea mays): 0 (Herbicidal ratio of 5% or less (almost no effect)); d (directly sowed Oryza sativa) effect on crop [5]: 1 (Herbicidal ratio of 5% or more and less than 20%) |
